Measurements as given in paper PMC10057977, “Use of In Vivo Imaging and Physiologically-Based Kinetic Modelling to Predict Hepatic Transporter Mediated Drug–Drug Interactions in Rats” (Pharmaceutics, 2023).
Like-named read-outs stand apart in the source and are kept apart here.

Experiments:
OATP1B3 = system: OATP1B3; design: method as in earlier work; settings: in vitro; ref 30,43-55 and in-house data from Merck & Co.; cited from earlier work
rMrp2 = rMrp2 (Rattus norvegicus, UniProt Q63120); type: in vivo; design: from tissue; host or cells: liver of living male Wistar rats (Charles River Laboratories); settings: ketoconazole 3 mg/kg iv
From the text: The tracer-kinetic model was developed to enable estimation of rate constants of hepatobiliary efflux from DCE-MRI profiles in individual animals. In this approach, the liver was assumed to consist of two compartments, the extracellular space (e) and the hepatocytes (h). Since water exchanges rapidly between those spaces, the change in relaxation rate was a weighted average (Equation (4)). (4) ΔR1(t)=r1,e·ve·ce(t)+r1,h·vh·ch(t)
The proportionality constant, r1,τ [L⋅mmol^−1⋅s^−1] , is the relaxivity of the contrast agent for the compartment τ (extracellular space, e or hepatocytes, h) at the respective field strength, while vτ [mL/mL tissue] is the volume fraction of the compartment τ . Previously measured ex vivo r1,tau values for gadoxetate were used in this work, as per. The underlying assumptions of the PBPK and tracer-kinetic models, relating to physiological volumes and perfusion, are consistent, despite different parameterizations according to the purpose of each model. For example, Vliv,extr in the PBPK model is defined as an absolute volume (units = L; sum of liver plasma and interstitial volumes), while in the tracer-kinetic model, ve is a volume fraction (dimensionless), defined as Vliv,extr/Vliver , where Vliver is the total liver volume. While some analogy can be drawn between CLactive […], and CLbiliary and kbh, the interpretations are distinct. For example, the operating concentrations of the PBPK parameters CLactive […], and CLbiliary are the unbound concentrations of gadoxetate in plasma and hepatocytes, while the tracer-kinetic model is parameterized with respect to the total concentration of gadoxetate.
Since ce(t) is the input to the hepatocytes, and no backflux from hepatocytes to extracellular space is assumed, Equation (5) can be derived. (5) vh·ch(t)=e^−t/Th∗khe·ce(t) where Th is the mean transit time of gadoxetate in the hepatocytes [min] , and * is convolution. The extracellular space is assumed to be in equilibrium with the blood pool and therefore the concentration ce(t) is proportional to the concentration cp(t) in the plasma of the feeding artery, i.e., ce(t) = (1 − E)·cp(t), where E is the extraction fraction of gadoxetate in the liver. Combining this assumption with Equations (4) and (5), and using (1 − E)·khe = E·Fp, with Fp being the apparent plasma flow into the liver [mL/min/mL tissue volume] , gives Equation (6), the operational equation for gadoxetate DCE-MRI in the liver. (6) ΔR1(t)=(1−E)·ve·r1,p·cp(t)+E·Fp·r1,h ·e^−t/Th ∗cp(t)
The rate constants were derived as K^trans = E·Fp, khe = E·Fp/(1 − E), and kbh = vh/Th, with a literature value for vh. The plasma concentrations cp(t) were not reliably measured in small animals due to the small diameter of the main vessels compared to the resolution of the measurement. […] Therefore, the source term cp(t) was derived from a two-compartment pharmacokinetic model for gadoxetate (see Supplementary Material, Section S5), and a step function as input in the blood compartment. The parameters kbh and khe were fitted to the liver data using a model implementation in Python. For each rat considered in these studies, the rate constants K^trans, khe, and kbh were calculated, in both control and inhibitory phases. The rate constants of the control and inhibitory phases were compared via calculation of simple (unstandardized) effect sizes (i.e., simple effect size = μcontrol − μtreatment, where μ is the mean average of all subjects) at the 95% confidence level. Statistical significance was assessed through a two-sided paired t-test, with p < 0.05 considered significant.

[1] = design: method as in supplement [28]; settings: rat; 30 min after 3 mg/kg ketoconazole IV; ref supplement [28]; cited from earlier work
MRP2 = settings: in vitro; bracket not explained in the table; ref 30,43-55 and in-house data from Merck & Co.; cited from earlier work
NTCP = system: NTCP; design: method as in earlier work; settings: in vitro; ref 30,43-55 and in-house data from Merck & Co.; cited from earlier work
OATP1B1 = system: OATP1B1; design: method as in earlier work; settings: in vitro, bracket not explained in the table, ref 30,43-55 and in-house data from Merck & Co., cited from earlier work
[2] = Drug plasma concentrations in humans at therapeutic dosing; type: in vivo; settings: ketoconazole plasma exposure, human
[3] = cited from earlier work

rMrp2, sequence (Q63120 whole entry): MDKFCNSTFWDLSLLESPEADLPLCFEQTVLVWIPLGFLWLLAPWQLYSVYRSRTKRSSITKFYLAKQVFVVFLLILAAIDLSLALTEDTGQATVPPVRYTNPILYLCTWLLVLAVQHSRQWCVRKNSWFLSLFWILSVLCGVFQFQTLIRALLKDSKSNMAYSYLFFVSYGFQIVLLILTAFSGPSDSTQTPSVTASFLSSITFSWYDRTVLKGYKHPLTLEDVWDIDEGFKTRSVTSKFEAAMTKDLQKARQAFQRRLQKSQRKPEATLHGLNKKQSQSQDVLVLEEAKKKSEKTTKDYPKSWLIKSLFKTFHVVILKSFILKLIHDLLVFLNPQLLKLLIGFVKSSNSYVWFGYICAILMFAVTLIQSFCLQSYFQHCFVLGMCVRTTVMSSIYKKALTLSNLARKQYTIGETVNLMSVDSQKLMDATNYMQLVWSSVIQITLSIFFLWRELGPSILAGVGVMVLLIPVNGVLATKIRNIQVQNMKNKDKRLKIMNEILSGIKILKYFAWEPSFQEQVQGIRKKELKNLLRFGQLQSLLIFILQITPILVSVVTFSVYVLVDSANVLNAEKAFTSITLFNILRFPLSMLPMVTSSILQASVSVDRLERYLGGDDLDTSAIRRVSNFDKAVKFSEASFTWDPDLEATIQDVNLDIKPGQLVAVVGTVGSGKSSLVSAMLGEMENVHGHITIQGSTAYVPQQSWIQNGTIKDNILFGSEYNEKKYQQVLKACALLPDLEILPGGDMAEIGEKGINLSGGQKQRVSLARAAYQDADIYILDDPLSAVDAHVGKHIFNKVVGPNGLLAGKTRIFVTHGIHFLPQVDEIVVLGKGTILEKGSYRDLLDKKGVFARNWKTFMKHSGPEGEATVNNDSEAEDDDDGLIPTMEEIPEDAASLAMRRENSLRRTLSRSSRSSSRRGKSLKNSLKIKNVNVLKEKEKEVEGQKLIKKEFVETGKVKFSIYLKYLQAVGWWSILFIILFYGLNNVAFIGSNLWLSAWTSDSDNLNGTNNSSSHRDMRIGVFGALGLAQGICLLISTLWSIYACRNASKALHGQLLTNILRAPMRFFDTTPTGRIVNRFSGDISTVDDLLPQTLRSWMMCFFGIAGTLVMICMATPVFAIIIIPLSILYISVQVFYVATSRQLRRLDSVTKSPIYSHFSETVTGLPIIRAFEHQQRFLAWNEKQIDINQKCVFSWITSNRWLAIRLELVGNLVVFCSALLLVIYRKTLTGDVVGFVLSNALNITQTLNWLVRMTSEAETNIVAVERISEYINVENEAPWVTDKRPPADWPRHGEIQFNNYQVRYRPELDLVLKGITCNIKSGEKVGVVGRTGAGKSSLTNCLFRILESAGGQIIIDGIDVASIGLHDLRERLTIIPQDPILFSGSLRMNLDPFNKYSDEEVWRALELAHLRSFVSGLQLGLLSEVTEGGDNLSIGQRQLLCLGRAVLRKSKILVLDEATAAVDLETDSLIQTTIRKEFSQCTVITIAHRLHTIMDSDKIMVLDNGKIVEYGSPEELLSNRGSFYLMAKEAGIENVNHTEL

Simple Effect Size (95% CI) kbh (rMrp2; gadoxetate biliary efflux, control − treatment, positive = decrease, site D): 0.02 (−0.02, 0.06) mL/min/mL liver
change in gadoxetate kbh vs control (rMrp2; rat, p = 0.39): no significant changes
unbound Cmax [2]: ~ 0.07 µM
SMILES: CC(=O)N1CCN(c2ccc(OCC3COC(Cn4ccnc4)(c4ccc(Cl)cc4Cl)O3)cc2)CC1 (stereo not shown) [Ketoconazole]
IC50 (OATP1B3): 3.9 µM
plasma concentration [1]: 4 µM
IC50 (MRP2): > 20 µM
IC50 (NTCP): 202 µM
IC50 (OATP1B1): 15.4 µM
Ki (OATP1B1): 50.7 µM
IC50 (OATP1B1; listed as ketoconazole): > 2 µM
Cmax ([3]; human plasma, daily dose 200 mg (ketoconazole), read-out: Cmax (µM) [Daily Dose]): 6.6 µM
clinical Ctrough ([3]; human, ref supplement [29]): 0.2 µM
Cmax ([3]; human, ref supplement [29], read-out: clinical Cmax): 7 µM
